Laboratory results reported in ChEMBL document CHEMBL1201862, “PubChem BioAssay data set” (2004).
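Method: 48-hour compound exposure of cells in 96-well plates, five concentrations, linear interpolation of endpoints. Here, GI50 denotes the concentration required for 50% inhibition of growth.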 The source made the active and inactive calls. Rule as the data show it: active = GI50 up to about 1.1 µM and inactive = higher.

Columns and labels:
Assay in all cases: NCI-60 cell line screen, 48 h
SF-295 = tested on: SF-295
DLD-1 = tested on: DLD-1
A498 = tested on: A498
OVCAR-8 = tested on: OVCAR-8
LXFL 529 = tested on: LXFL 529
OVCAR-5 = tested on: OVCAR-5
U-251 = tested on: U-251
UO-31 = tested on: UO-31
SF-268 = tested on: SF-268
K562 = tested on: K562
M19-MEL = tested on: M19-MEL
HL-60 = tested on: HL-60
SNB-19 = tested on: SNB-19
HT-29 = tested on: HT-29
HOP-92 = tested on: HOP-92
RPMI-8226 = tested on: RPMI-8226
RXF 393 = tested on: RXF 393
SW-620 = tested on: SW-620
LOX IMVI = tested on: LOX IMVI
MOLT-4 = tested on: MOLT-4
SN12C = tested on: SN12C
M14 = tested on: M14
IGROV-1 = tested on: IGROV-1
A549 = tested on: A549
CCRF-CEM = tested on: CCRF-CEM
SNB-78 = tested on: SNB-78
SK-MEL-5 = tested on: SK-MEL-5
HCT-15 = tested on: HCT-15
KM-20L2 = tested on: KM-20L2
TK-10 = tested on: TK-10
SF-539 = tested on: SF-539
UACC-257 = tested on: UACC-257
786-0 = tested on: 786-0
UACC-62 = tested on: UACC-62
ACHN = tested on: ACHN
SNB-75 = tested on: SNB-75
NCI-H460 = tested on: NCI-H460
NCI-H522 = tested on: NCI-H522
SK-MEL-28 = tested on: SK-MEL-28
CAKI-1 = tested on: CAKI-1
NCI-H23 = tested on: NCI-H23
COLO 205 = tested on: COLO 205
OVCAR-4 = tested on: OVCAR-4
HCC 2998 = tested on: HCC 2998
DMS-114 = tested on: DMS-114
HCT-116 = tested on: HCT-116
HOP-62 = tested on: HOP-62
SK-MEL-2 = tested on: SK-MEL-2
SK-OV-3 = tested on: SK-OV-3
KM12 = tested on: KM12
DMS-273 = tested on: DMS-273
Malme-3M = tested on: Malme-3M
NCI-H226 = tested on: NCI-H226

NNC(=O)CCC(=O)NC1C2CC3CC(C2)CC1C3 (stereo not drawn)
GI50 (SF-295): > 100 µM (inactive)
GI50 (DLD-1): > 100 µM (inactive)
GI50 (A498): > 100 µM (inactive)
GI50 (OVCAR-8): > 100 µM (inactive)
GI50 (LXFL 529): > 100 µM (inactive)
GI50 (OVCAR-5): > 100 µM (inactive)
GI50 (U-251): > 100 µM (inactive)
GI50 (UO-31): > 100 µM (inactive)
GI50 (SF-268): > 100 µM (inactive)
GI50 (K562): > 100 µM (inactive)
GI50 (M19-MEL): > 100 µM (inactive)
GI50 (HL-60): > 100 µM (inactive)
GI50 (SNB-19): > 100 µM (inactive)
GI50 (HT-29): > 100 µM (inactive)
GI50 (HOP-92): > 100 µM (inactive)
GI50 (RPMI-8226): > 100 µM (inactive)
GI50 (RXF 393): 45.4 µM (inactive)
GI50 (SW-620): > 100 µM (inactive)
GI50 (LOX IMVI): > 100 µM (inactive)
GI50 (MOLT-4): 43.5 µM (inactive)
GI50 (SN12C): > 100 µM (inactive)
GI50 (M14): > 100 µM (inactive)
GI50 (IGROV-1): > 100 µM (inactive)
GI50 (A549): > 100 µM (inactive)
GI50 (CCRF-CEM): > 100 µM (inactive)
GI50 (SNB-78): > 100 µM (inactive)
GI50 (SK-MEL-5): > 100 µM (inactive)
GI50 (HCT-15): > 100 µM
GI50 (KM-20L2): > 100 µM (inactive)
GI50 (TK-10): > 100 µM (inactive)
GI50 (SF-539): > 100 µM (inactive)
GI50 (UACC-257): > 100 µM (inactive)
GI50 (786-0): > 100 µM (inactive)
GI50 (UACC-62): > 100 µM (inactive)
GI50 (ACHN): > 100 µM (inactive)
GI50 (SNB-75): > 100 µM (inactive)
GI50 (NCI-H460): > 100 µM (inactive)
GI50 (NCI-H522): > 100 µM (inactive)
GI50 (SK-MEL-28): > 100 µM (inactive)
GI50 (CAKI-1): > 100 µM (inactive)
GI50 (NCI-H23): > 100 µM (inactive)
GI50 (COLO 205): > 100 µM (inactive)
GI50 (OVCAR-4): > 100 µM (inactive)
GI50 (HCC 2998): > 100 µM (inactive)
GI50 (DMS-114): > 100 µM (inactive)
GI50 (HCT-116): > 100 µM (inactive)
GI50 (HOP-62): > 100 µM (inactive)
GI50 (SK-MEL-2): > 100 µM (inactive)
GI50 (SK-OV-3): > 100 µM (inactive)
GI50 (KM12): > 100 µM (inactive)
GI50 (DMS-273): > 100 µM (inactive)
GI50 (Malme-3M): > 100 µM (inactive)
GI50 (NCI-H226): > 100 µM (inactive)
